According to patent publication US10899738B2 (THE REGENTS OF THE UNIVERSITY OF MICHIGAN, priority 2016, dated 2021):

molecular target: menin protein (Homo sapiens (Human), UniProt O00255); assay: biochemical; format: binding; details: FP competitive binding; menin protein 4 nM, FAM-MM2 probe 2 nM; read-out: Menin Binding Affinity IC50
Outline: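 Test compounds displaced FAM-MM2 (2 nM) from 4 nM menin after 30 min equilibration at room temperature in PBS buffer containing bovine γ-globulin, 4% DMSO and Triton X-100. Binding was followed by fluorescence polarization. Competition curves were fitted by nonlinear regression to give IC50 and Ki.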

Chain of menin protein (O00255 whole entry): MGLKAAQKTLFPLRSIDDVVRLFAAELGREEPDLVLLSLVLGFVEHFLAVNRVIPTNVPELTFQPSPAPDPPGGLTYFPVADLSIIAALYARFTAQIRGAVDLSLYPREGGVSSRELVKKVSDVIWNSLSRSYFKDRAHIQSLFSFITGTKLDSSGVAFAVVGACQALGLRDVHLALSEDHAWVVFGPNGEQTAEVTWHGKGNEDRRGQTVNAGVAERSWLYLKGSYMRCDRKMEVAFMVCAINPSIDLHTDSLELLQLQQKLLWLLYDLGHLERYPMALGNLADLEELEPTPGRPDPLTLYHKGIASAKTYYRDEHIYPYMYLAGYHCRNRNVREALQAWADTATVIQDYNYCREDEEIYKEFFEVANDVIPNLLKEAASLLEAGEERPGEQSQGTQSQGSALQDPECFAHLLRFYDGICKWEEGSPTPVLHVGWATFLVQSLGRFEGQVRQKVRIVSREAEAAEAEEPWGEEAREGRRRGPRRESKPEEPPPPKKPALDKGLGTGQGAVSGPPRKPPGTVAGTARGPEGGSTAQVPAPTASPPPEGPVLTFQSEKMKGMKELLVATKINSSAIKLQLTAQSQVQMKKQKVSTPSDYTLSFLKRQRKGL

Compound	IC50 [µM]
N#Cc1ccc(N2CCCC(CN3CCC(C4(C5CCCC5)NCCc5ccccc54)CC3)C2)cc1 (centres unmarked) [compound 115, 4-(3-((4-(1-cyclopentyl-1,2,3,4-tetrahydroisoquinolin-1-yl)piperidin-1-yl)methyl)piperidin-1-yl)benzonitrile]	4
N#CC(Cc1ccncc1)(c1ccccc1)C1CCN(CC2CN(c3ccc(S(=O)(=O)c4ccncc4)cc3)C2)CC1 (centres unmarked) [compound 343, 2-phenyl-3-(pyridin-4-yl)-2-(1-((1-(4-(pyridin-4-ylsulfonyl)phenyl)azetidin-3-yl)methyl)piperidin-4-yl)propanenitrile]	8.8
CS(=O)(=O)c1ccc(N2CC(CN3CCC(C(C#N)(c4ccccc4)C4CCC(=O)C4)CC3)C2)cc1 (centres unmarked) [compound 169, 2-(1-((1-(4-(methylsulfonyl)phenyl)azetidin-3-yl)methyl)piperidin-4-yl)-2-(3-oxocyclopentyl)-2-phenylacetonitrile]	49.9
N#CC(c1ccccc1)(C1CCCC1)C1CCN(CC2CN(c3ccc(S(=O)(=O)c4ccncc4)cc3)C2)CC1 (centres unmarked) [compound 190, 2-cyclopentyl-2-phenyl-2-(1-((1-(4-(pyridin-4-ylsulfonyl)phenyl)azetidin-3-yl)methyl)piperidin-4-yl)acetonitrile]	2
CCO[C@@H]1CCC[C@H]1C(C#N)(c1ccccc1)C1CCN(CC2CN(c3ccc(S(C)(=O)=O)cc3)C2)CC1 (mixture of isomers) [compound 189, rac-2-((1S,2R)-2-ethoxycyclopentyl)-2-(1-((1-(4-(methylsulfonyl)phenyl)azetidin-3-yl)methyl)piperidin-4-yl)-2-phenylacetonitrile]	20.5
CCCCC(=O)c1cc2cc(CCN3CCC(C4(C5CCCC5)NCCc5ccccc54)CC3)ccc2n1C (centres unmarked) [compound 65, 1-(5-(2-(4-(1-cyclopentyl-1,2,3,4-tetrahydroisoquinolin-1-yl)piperidin-1-yl)ethyl)-1-methyl-1H-indol-2-yl)pentan-1-one]	2.8
N#Cc1cc2ccc(C(=O)N3CCC(CC4(C5CCCC5)NCCc5ccccc54)CC3)cc2[nH]1 (centres unmarked) [compound 118, 6-(4-((1-cyclopentyl-1,2,3,4-tetrahydroisoquinolin-1-yl)methyl)piperidine-1-carbonyl)-1H-indole-2-carbonitrile]	21.8
CNC(=O)O[C@@H]1CCC[C@H]1C(C#N)(c1ccccc1)C1CCN(CC2CN(c3ccc(S(=O)(=O)C4CC4)cc3)C2)CC1 (mixture of isomers) [compound 227, rac-(1R,2S)-2-(cyano(1-((1-(4-(cyclopropylsulfonyl)phenyl)azetidin-3-yl)methyl)piperidin-4-yl)(phenyl)methyl)cyclopentyl methylcarbamate]	0.498
N#Cc1ccc(OCCCN2CCC(C3(C4CCCC4)COCc4ccccc43)CC2)cc1 (centres unmarked) [compound 35, 4-(3-(4-(4-cyclopentylisochroman-4-yl)piperidin-1-yl)propoxy)benzonitrile]	3.2
CCNC(=O)O[C@@H]1CCC[C@H]1C(C#N)(c1ccccc1)C1CCN(CC2CN(c3ccc(S(=O)(=O)c4ccncc4)cc3)C2)CC1 (mixture of isomers) [compound 214, rac-(1R,2S)-2-(cyano(phenyl)(1-((1-(4-(pyridin-4-ylsulfonyl)phenyl)azetidin-3-yl)methyl)piperidin-4-yl)methyl)cyclopentyl ethylcarbamate]	3.4
COCC[C@H]1CCC[C@@H]1C(C#N)(c1ccccc1)C1CCN(CC2CN(c3ccc(S(=O)(=O)c4ccnc(C)c4)cc3)C2)CC1 (mixture of isomers) [compound 336, rac-2-((1S,2R)-2-(2-methoxyethyl)cyclopentyl)-2-(1-((1-(4-((2-methylpyridin-4-yl)sulfonyl)phenyl)azetidin-3-yl)methyl)piperidin-4-yl)-2-phenylacetonitrile]	29.4
N#Cc1ccc(OCCCN2CCC(C(CN)(c3ccccc3)C3CCCC3)CC2)cc1 (centres unmarked) [compound 39, 4-(3-(4-(2-amino-1-cyclopentyl-1-phenylethyl)piperidin-1-yl)propoxy)benzonitrile]	0.124
CNC(=O)O[C@H]1CCC[C@@H]1C(Cn1ccnc1)(c1ccccc1)C1CCN(CC2CN(c3ccc(C(F)(F)F)cc3)C2)CC1 (mixture of isomers) [compound 421, rac-(1S,2R)-2-(2-(1H-imidazol-1-yl)-1-phenyl-1-(1-((1-(4-(trifluoromethyl)phenyl)azetidin-3-yl)methyl)piperidin-4-yl)ethyl)cyclopentyl methylcarbamate]	0.004
CCN1Cc2ccccc2C(C2CCCC2)(C2CCN(CC3CN(c4ccc(S(=O)(=O)c5ccnc(C)c5)cc4)C3)CC2)C1 (centres unmarked) [compound 154, 4-cyclopentyl-2-ethyl-4-(1-((1-(4-((2-methylpyridin-4-yl)sulfonyl)phenyl)azetidin-3-yl)methyl)piperidin-4-yl)-1,2,3,4-tetrahydroisoquinoline]	0.006
N#Cc1ccc(OCCCN2CCC(C3(C4CCCC4)NCCc4sccc43)CC2)cc1 (centres unmarked) [compound 32, 4-(3-(4-(4-cyclopentyl-4,5,6,7-tetrahydrothieno[3,2-c]pyridin-4-yl)piperidin-1-yl)propoxy)benzonitrile]	0.059
CNC(=O)N[C@@H]1CCC[C@H]1C(C#N)(c1ccccc1)C1CCN(CCCOc2ccc(C#N)cc2)CC1 (mixture of isomers) [compound 318, rac-1-((1R,2S)-2-(cyano(1-(3-(4-cyanophenoxy)propyl)piperidin-4-yl)(phenyl)methyl)cyclopentyl)-3-methylurea]	20.9
CC(COc1ccc(C#N)cc1)CN1CCC(C(C#N)(c2ccccc2)C2CCCC2)CC1 (centres unmarked) [compound 127, 4-(3-(4-(cyano(cyclopentyl)(phenyl)methyl)piperidin-1-yl)-2-methylpropoxy)benzonitrile]	294
N#Cc1ccc(OCCCN2CCC(CC3(C4CCCC4)NCCc4ccccc43)CC2)cc1 (centres unmarked) [compound 104, 4-(3-(4-((1-cyclopentyl-1,2,3,4-tetrahydroisoquinolin-1-yl)methyl)piperidin-1-yl)propoxy)benzonitrile]	32.7
O=C(CN1CCC(C2(C3CCCC3)NCCc3ccccc32)CC1)N1CCc2ccccc2C1 (centres unmarked) [compound 84, 2-(4-(1-cyclopentyl-1,2,3,4-tetrahydroisoquinolin-1-yl)piperidin-1-yl)-1-(3,4-dihydroisoquinolin-2(1H)-yl)ethan-1-one]	8.2
N#Cc1ccc(OCCCN2CCC(C3(Cc4ccccc4)NCCc4ccccc43)CC2)cc1 (centres unmarked) [compound 243, 4-(3-(4-(1-benzyl-1,2,3,4-tetrahydroisoquinolin-1-yl)piperidin-1-yl)propoxy)benzonitrile]	4.2
O=S(=O)(c1ccncc1)c1ccc(N2CC(CN3CCC(C4(C5CCCC5)CN(CC5CC5)Cc5ccccc54)CC3)C2)cc1 (centres unmarked) [compound 50, 4-cyclopentyl-2-(cyclopropylmethyl)-4-(1-((1-(4-(pyridin-4-ylsulfonyl)phenyl)azetidin-3-yl)methyl)piperidin-4-yl)-1,2,3,4-tetrahydroisoquinoline]	0.007
CS(=O)(=O)c1ccc(N2CC(CN3CCC(C4(C5CCCC5)NCCc5ccccc54)CC3)C2)cc1 (centres unmarked) [compound 132, 1-cyclopentyl-1-(1-((1-(4-(methylsulfonyl)phenyl)azetidin-3-yl)methyl)piperidin-4-yl)-1,2,3,4-tetrahydroisoquinoline]	0.077
CCS(=O)(=O)c1ccc(N2CC(C(=O)N3CCC(C4(C5CCCC5)NCCc5c(F)cccc54)CC3)C2)cc1 (centres unmarked) [compound 116, (4-(1-cyclopentyl-5-fluoro-1,2,3,4-tetrahydroisoquinolin-1-yl)piperidin-1-yl)(1-(4-(ethylsulfonyl)phenyl)azetidin-3-yl)methanone]	6
CSC[C@@H]1CCC[C@H]1C(C#N)(c1ccccc1)C1CCN(CC2CN(c3ccc(S(=O)(=O)c4ccncc4)cc3)C2)CC1 (mixture of isomers) [compound 260, rac-2-((1R,2R)-2-((methylthio)methyl)cyclopentyl)-2-phenyl-2-(1-((1-(4-(pyridin-4-ylsulfonyl)phenyl)azetidin-3-yl)methyl)piperidin-4-yl)acetonitrile]	17
CS(=O)(=O)c1ccc(N2CC(CN3CCC(C(C#N)(c4ccccc4)[C@@H]4CCC[C@H]4O)CC3)C2)cc1 (mixture of isomers) [compound 179, rac-2-((1S,2R)-2-hydroxycyclopentyl)-2-(1-((1-(4-(methylsulfonyl)phenyl)azetidin-3-yl)methyl)piperidin-4-yl)-2-phenylacetonitrile]	3.8
CO[C@@H]1CCC[C@@H]1C(C#N)(c1ccccc1)C1CCN(CCCOc2ccc(C#N)cc2)CC1 (mixture of isomers) [compound 177, rac-4-(3-(4-(cyano((1R,2R)-2-methoxycyclopentyl)(phenyl)methyl)piperidin-1-yl)propoxy)benzonitrile]	3.6
O=S(=O)(c1ccc(N2CC(F)(CN3CCC(C4(C5CCCC5)NCCc5ccccc54)CC3)C2)cc1)C1CC1 (centres unmarked) [compound 140, 1-cyclopentyl-1-(1-((1-(4-(cyclopropylsulfonyl)phenyl)-3-fluoroazetidin-3-yl)methyl)piperidin-4-yl)-1,2,3,4-tetrahydroisoquinoline]	0.104
c1ccc(CN2CCC(C3(C4CCCC4)NCCc4ccccc43)CC2)cc1 (centres unmarked) [Cpd. No. 71, 1-(1-benzylpiperidin-4-yl)-1-cyclopentyl-1,2,3,4-tetrahydroisoquinoline]	190
CS(=O)(=O)N[C@H]1CCC[C@@H]1C(C#N)(c1ccccc1)C1CCN(CC2CN(c3ccc(S(=O)(=O)c4ccncc4)cc3)C2)CC1 (mixture of isomers) [compound 267, rac-N-((1S,2R)-2-(cyano(phenyl)(1-((1-(4-(pyridin-4-ylsulfony)phenyl)azetidin-3-yl)methyl)piperidin-4-yl)methyl)cyclopentyl) methanesulfonamide]	0.437
